Data from PubChem BioAssay AID330 (DTP/NCI, 2004).
Several values for one entry are separate records, joined by “and”; a condition that tells them apart may be missing. Equal values may be shown once. Inconclusive results and toxic doses are left out. Rule for the calls: active = survival T/C of 150% or more; inactive = T/C below 125% in these data.

Test system: P388 leukemia ip, CD2F1 mice, survival T/C
Assay: NCI In Vivo Anticancer Drug Screen. Data for tumor model P388 Leukemia (intraperitoneal) in CD2F1 (CDF1) mice
Conditions: endpoint: median survival time, higher = longer survival
In short: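 Mice carrying the transplanted tumor received test compound or vehicle. Survival was recorded in each group, and the value is the treated-group measurement divided by that of the vehicle-treated control group.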

[1] = dose: 12.5 mg/kg/injection, schedule: Q01DX009 (ip), vehicle: saline with Tween-80
[2] = dose: 25.0 mg/kg/injection, schedule: Q01DX009 (ip), vehicle: saline with Tween-80
[3] = dose: 50.0 mg/kg/injection, schedule: Q01DX009 (ip), vehicle: saline with Tween-80
[4] = dose: 100.0 mg/kg/injection, schedule: Q01DX009 (ip), vehicle: saline with Tween-80
[5] = dose: 60.0 mg/kg/injection, schedule: Q01DX005 (ip), vehicle: Klucel (hydroxypropylcellulose) (HPC)
[6] = dose: 120.0 mg/kg/injection, schedule: Q01DX005 (ip), vehicle: Klucel (hydroxypropylcellulose) (HPC)
[7] = dose: 240.0 mg/kg/injection, schedule: Q01DX005 (ip), vehicle: Klucel (hydroxypropylcellulose) (HPC)
[8] = dose: 60.0 mg/kg/injection, schedule: Q01DX005 (ip), vehicle: saline with Tween-80
[9] = dose: 120.0 mg/kg/injection, schedule: Q01DX005 (ip), vehicle: saline with Tween-80
[10] = dose: 240.0 mg/kg/injection, schedule: Q01DX005 (ip), vehicle: saline with Tween-80
[11] = dose: 50.0 mg/kg/injection, schedule: Q01DX005 (ip), vehicle: Klucel (hydroxypropylcellulose) (HPC)
[12] = dose: 100.0 mg/kg/injection, schedule: Q01DX005 (ip), vehicle: Klucel (hydroxypropylcellulose) (HPC)
[13] = dose: 200.0 mg/kg/injection, schedule: Q01DX005 (ip), vehicle: Klucel (hydroxypropylcellulose) (HPC)
[14] = dose: 50.0 mg/kg/injection, schedule: Q01DX005 (ip), vehicle: saline with Tween-80
[15] = dose: 100.0 mg/kg/injection, schedule: Q01DX005 (ip), vehicle: saline with Tween-80
[16] = dose: 200.0 mg/kg/injection, schedule: Q01DX005 (ip), vehicle: saline with Tween-80
[17] = dose: 60.0 mg/kg/injection, schedule: Q01DX005 (ip), vehicle: saline
[18] = dose: 120.0 mg/kg/injection, schedule: Q01DX005 (ip), vehicle: saline
[19] = dose: 240.0 mg/kg/injection, schedule: Q01DX005 (ip), vehicle: saline
[20] = dose: 50.0 mg/kg/injection, schedule: Q01DX005 (ip), vehicle: saline
[21] = dose: 100.0 mg/kg/injection, schedule: Q01DX005 (ip), vehicle: saline

Measured: T/C

CCOC(=O)Nc1cc2c(c(N)n1)N=C(c1ccc(C(F)(F)F)cc1)CN2
inactive: dose: 2.5 mg/kg/injection, schedule: Q01DX009 (ip), vehicle: saline with Tween-80 109 % of control | dose: 5.0 mg/kg/injection, schedule: Q01DX009 (ip), vehicle: saline with Tween-80 111 % of control | dose: 7.5 mg/kg/injection, schedule: Q04DX003 (ip), vehicle: saline with Tween-80 101 % of control | dose: 10.0 mg/kg/injection, schedule: Q01DX009 (ip), vehicle: saline with Tween-80 111 % of control | [1] 86 % of control | dose: 15.0 mg/kg/injection, schedule: Q04DX003 (ip), vehicle: saline with Tween-80 104 % of control | dose: 22.5 mg/kg/injection, schedule: Q01DX001 (ip), vehicle: saline with Tween-80 101 % of control | [2] 111 % of control | dose: 30.0 mg/kg/injection, schedule: Q04DX003 (ip), vehicle: saline with Tween-80 101 % of control | dose: 45.0 mg/kg/injection, schedule: Q01DX001 (ip), vehicle: saline with Tween-80 94 % of control | [3] 117 % of control | dose: 90.0 mg/kg/injection, schedule: Q01DX001 (ip), vehicle: saline with Tween-80 101 % of control

O=C(COc1ccc(Cl)cc1Cl)Oc1c(Cl)c(Cl)c(Cl)c(Cl)c1Cl
inactive: [2] 91 % of control | [3] 91 % of control | [4] 91 % of control

Cc1nc(N)[nH]c(=O)c1CCCN=Cc1ccccc1
inactive: [5] 108 % of control | [6] 105 % of control | [7] 96 % of control

Cc1ccc2nc(CC(=O)c3ccc(F)cc3)c(=O)[nH]c2c1
inactive: [8] 100 % of control | [9] 100 % of control | [10] 107 % of control

O=C(O)CCC(=O)NNc1nc2ccccc2s1
inactive: [5] 102 % of control | [6] 104 % of control | [7] 97 % of control

COC(=O)/C=C\C(=O)O
inactive: dose: 50.0 mg/kg/injection, schedule: Q04DX003 (ip), vehicle: saline 100 % of control | dose: 100.0 mg/kg/injection, schedule: Q04DX003 (ip), vehicle: saline 110 % of control | dose: 200.0 mg/kg/injection, schedule: Q04DX003 (ip), vehicle: saline 120 % of control

C(=N\c1nccs1)/c1ccc[nH]1
inactive: [11] 99 % of control | [12] 96 % of control | [13] 100 % of control

CCOC1N(c2ccccc2)CN(C2CCCCC2)CC1(C)C (stereo unspecified)
inactive: dose: 6.25 mg/kg/injection, schedule: Q01DX009 (ip), vehicle: saline with Tween-80 100 % of control | [1] 98 % of control | [2] 102 % of control

S=C1SCN(CCc2c[nH]c3ccccc23)CN1CCc1c[nH]c2ccccc12
inactive: [14] 92 % of control | [15] 90 % of control | [16] 92 % of control

COC(/C=N/OC(=O)c1ccccc1)c1ccccc1 (stereo unspecified)
inactive: dose: 25.0 mg/kg/injection, schedule: Q04DX003 (ip), vehicle: saline with Tween-80 98 % of control and 90 % of control | dose: 50.0 mg/kg/injection, schedule: Q04DX003 (ip), vehicle: saline with Tween-80 92 % of control

CCOC(=O)CC(=O)c1sc(Nc2ccccc2)c(C#N)c1N
inactive: [14] 98 % of control | [15] 90 % of control | [16] 90 % of control

CC(C)(C)OC(=O)NC(CSCc1ccccc1)C(=O)ON1C(=O)CCC1=O (stereo unspecified)
inactive: [11] 100 % of control | [12] 98 % of control | [13] 94 % of control

COc1ccc(C(=O)CC2CCCC(CC(=O)c3ccc(OC)cc3)N2C)cc1 (stereo unspecified)
inactive: [3] 100 % of control | [4] 101 % of control

CCOC(=O)CC1NC(=O)CNC1=O (stereo unspecified)
inactive: [17] 100 % of control | [18] 101 % of control | [19] 100 % of control

COC(=O)CCc1c(C)nc(N(C)C)oc1=O
inactive: [17] 100 % of control | [18] 100 % of control | [19] 99 % of control

CCCCOCN(CC(CC)CCCC)CC(CC)CCCC (stereo unspecified)
inactive: [14] 98 % of control | [15] 100 % of control | [16] 104 % of control

CCc1nn(CCCN2CCN(c3cccc(Cl)c3)CC2)c(=O)n1CC
inactive: dose: 50.0 mg/kg/injection, schedule: Q01DX009 (ip), vehicle: saline 114 % of control | dose: 100.0 mg/kg/injection, schedule: Q01DX009 (ip), vehicle: saline 116 % of control

CCOC(CBr)(OCC)OCC
inactive: [2] 94 % of control | [3] 113 % of control | [4] 113 % of control

CC(=O)NCC(CN(C)C)(c1ccccc1)c1ccccc1
inactive: dose: 37.5 mg/kg/injection, schedule: Q01DX009 (ip), vehicle: Klucel (hydroxypropylcellulose) (HPC) 101 % of control | dose: 75.0 mg/kg/injection, schedule: Q01DX009 (ip), vehicle: Klucel (hydroxypropylcellulose) (HPC) 101 % of control | dose: 150.0 mg/kg/injection, schedule: Q01DX009 (ip), vehicle: Klucel (hydroxypropylcellulose) (HPC) 96 % of control | dose: 300.0 mg/kg/injection, schedule: Q01DX009 (ip), vehicle: Klucel (hydroxypropylcellulose) (HPC) 95 % of control

COC(=O)C1=C/CCCN(CCc2ccccc2)/C=C\1C(=O)OC
inactive: dose: 100.0 mg/kg/injection, schedule: Q01DX001 (ip), vehicle: alcohol 103 % of control | dose: 200.0 mg/kg/injection, schedule: Q01DX001 (ip), vehicle: alcohol 101 % of control | dose: 400.0 mg/kg/injection, schedule: Q01DX001 (ip), vehicle: alcohol 97 % of control

CC(=O)Nc1ccc(C(C)C)cc1N
inactive: [11] 100 % of control | [12] 101 % of control | [13] 107 % of control

CCCSC(=O)Nc1ccc(Cc2ccc(NC(=O)SCCC)cc2)cc1
inactive: [8] 90 % of control | [9] 87 % of control | [10] 99 % of control

O=c1cccccc1O
inactive: dose: 12.5 mg/kg/injection, schedule: Q01DX009 (ip), vehicle: saline 105 % of control and 107 % of control | dose: 25.0 mg/kg/injection, schedule: Q01DX009 (ip), vehicle: saline 100 % of control

O=C1OCCOCCOC(=O)C(=O)OCCOCCOC1=O
inactive: dose: 100.0 mg/kg/injection, schedule: Q04DX003 (ip), vehicle: Klucel (hydroxypropylcellulose) (HPC) 98 % of control | dose: 200.0 mg/kg/injection, schedule: Q04DX003 (ip), vehicle: Klucel (hydroxypropylcellulose) (HPC) 100 % of control | dose: 400.0 mg/kg/injection, schedule: Q04DX003 (ip), vehicle: Klucel (hydroxypropylcellulose) (HPC) 98 % of control

Nc1nc(F)nc2c1nnn2C1OC(CO)C(O)C1O (stereo unspecified)
inactive: dose: 12.5 mg/kg/injection, schedule: Q01DX001 (ip), vehicle: saline 112 % of control | dose: 25.0 mg/kg/injection, schedule: Q01DX001 (ip), vehicle: saline 109 % of control | dose: 50.0 mg/kg/injection, schedule: Q01DX001 (ip), vehicle: saline 109 % of control | [20] 121 % of control | dose: 100.0 mg/kg/injection, schedule: Q01DX001 (ip), vehicle: saline 104 % of control | [21] 114 % of control

Nc1nnc2nc(C3(c4nc5nnc(N)n5[nH]c4=O)CCCC3=O)c(=O)[nH]n12
inactive: [20] 106 % of control | [21] 94 % of control | dose: 200.0 mg/kg/injection, schedule: Q01DX005 (ip), vehicle: saline 106 % of control

c1ccc2c(c1)CC/C2=N\OCC1CO1 (stereo unspecified)
inactive: dose: 100.0 mg/kg/injection, schedule: Q04DX002 (ip), vehicle: saline with Tween-80 102 % of control | dose: 200.0 mg/kg/injection, schedule: Q04DX002 (ip), vehicle: saline with Tween-80 104 % of control | dose: 400.0 mg/kg/injection, schedule: Q04DX002 (ip), vehicle: saline with Tween-80 106 % of control

c1ccc2c(c1)Oc1cccc3cccc-2c13
inactive: [11] 97 % of control | [12] 101 % of control | [13] 101 % of control

CCC/C(=N\NC(=S)N1CCCCCC1)c1ccccn1
inactive: dose: 25.0 mg/kg/injection, schedule: Q01DX005 (ip), vehicle: saline with Tween-80 117 % of control | [14] 124 % of control

CC1C(=O)OCC1(C)O (stereo unspecified)
inactive: [17] 107 % of control | [18] 103 % of control | [19] 109 % of control

CC(=O)C(C#N)c1ccccn1 (stereo unspecified)
inactive: [3] 106 % of control | [4] 105 % of control | dose: 200.0 mg/kg/injection, schedule: Q01DX009 (ip), vehicle: saline with Tween-80 100 % of control
